This is an account of results in US20250195598A1, “FLAVONOID ACTIVE FRACTION OF AN ABELMOSCHI COROLLA, PREPARATION METHOD AND APPLICATION THEREOF” (SUZHONG PHARMACEUTICAL GROUP CO., LTD., priority 2022, published 2025).

The conditions of data set [1]: compared with the control group; cited from earlier work.
The test system of data set [2] is diabetic kidney disease model, C57BL/6 mice. Briefly: streptozotocin (STZ)+high-fat-fed diabetic kidney disease model. The class given is in vivo. The settings on record: samples 62.4 mg/kg, Dapagliflozin tablet 45.5 mg/kg. On the procedure: Administration method: intragastric administration. Experimental modeling: after 3 days of adaptive feeding, the experimental mice were fed with high-fat and high-sugar feed (made by laboratory according to a formula of lard:sucrose:yolk:basic feed=18:20:3:59) for 8 consecutive weeks, and then intraperitoneally injected with an STZ sodium citrate solution according to a dosage of 100 mg/kg for 7 consecutive days. […] When the blood glucose was greater than 13.8 mmol/L, and there were urine protein and renal function abnormality, the modeling was successful. Experimental groups: there were a total of 6 groups, comprising a normal group, a model group, a positive drug group (Dapagliflozin tablet, 45.5 mg/kg), a sample group prepared by the method of Embodiment 2-1 (62.4 mg/kg), a sample group prepared by the method of Embodiment 6 (62.4 mg/kg) and a sample group prepared by the method of Embodiment 8 (62.4 mg/kg), with 15 mice in each group. After 4 weeks of administration, urine protein and urine creatinine were detected, and a daily food intake and a mouse state were calculated.

Another data set relates to db/db mice. Nature of the data set: db/db mice diabetic kidney disease model. The settings on record: samples 62.4 mg/kg, Dapagliflozin tablet 45.5 mg/kg. The class given is in vivo. On the procedure: Animal model: db/db mice, 16 weeks old, and C57 BL/6 mice, 16 weeks old. Administration mode: intragastric administration. Experimental modeling: the db/db mice were raised for 17 weeks, and then urine protein was detected. When there were urine protein and renal function abnormality, the modeling was successful for later experiment. Experimental groups: there were a normal group of the C57 BL/6 mice, a model group of the db/db mice, a positive drug group (Dapagliflozin tablet, 45.5 mg/kg), a sample group prepared by the method of Embodiment 3-1 (62.4 mg/kg), a sample group prepared by the method of Embodiment 9.1 (62.4 mg/kg), and a sample group prepared by the method of Embodiment 2-A3 (62.4 mg/kg). There were 6 groups in total, with 15 mice in each group. After 4 weeks of administration, urine protein, urine creatinine and a daily food intake were detected, and a mouse state was observed.

A further data set has as its system MRL/lpr mice. Nature of the data set: lupus erythematosus nephritis. The conditions noted are these: Dexamethasone 1 mg/kg, Embodiment 2-B 69.9 mg/kg, other samples 87.36 mg/kg. Format: in vivo. From the text: 26 male MRL/lpr mice (lupus erythematosus nephritis mice) were selected as an observation group 1, with 18 g to 22 g weight and 13 weeks old, which were purchased from Nanjing Junke Bioengineering Co., Ltd., and 24 male C57BL/6 mice were selected as a normal group, with 18 g to 22 g weight and 13 weeks old, which were purchased from Wuhan Hualianke Biotechnology Co., Ltd.
The mice were administrated for 4 weeks.
After administration, 24-hour urine was collected to detect urine protein. After the urine was collected, eyeballs of all the mice were taken for blood collection, and the collected blood was centrifuged to obtain serum for antinuclear antibody detection. Meanwhile, kidneys of the mice were taken out, quickly frozen in liquid nitrogen, and stored in a refrigerator at −80° C. for kidney immune detection.

Another data set concerns SD rats. Nature of the data set: contrast-induced kidney injury. Format: in vivo. The conditions noted are these: intragastric, 4 weeks; Irbesartan 50 mg/kg/d, samples 69.9 or 87.36 mg/kg (groups of b143 differ from the table). On the procedure: Experimental animals: SD rats, 200 g to 250 g weight, SPF grade, half male and half female.
(§1) Administration mode: intragastric administration.
Experimental modeling: healthy male SD rats were selected, intramuscularly injected with furosemide (10 ml/kg) first, and then injected with a prostaglandin synthesis inhibitor (indomethacin, 10 mg/kg, dissolved in dimethyl sulfoxide, and diluted with 1.25% of NAHCO3 solution), a nitric oxide synthase inhibitor (N-nitro-L-arginine-methyl ester hydrochloride, L-NAME, 10 mg/kg, dissolved in 0.9% of NaCl solution) and 76% of meglumine diatrizoate by tail vein every 15 minutes.
In animal models, the increase of serum creatinine exceeding the baseline by 50% was often used as the diagnostic criterion of acute kidney injury, that was, the success criterion of modeling.
Drug groups and administration dosages: there were a normal group, a model group, a positive control drug group (Irbesartan 50 mg/kg/d), a sample group of Embodiment 2-1 (69.9 mg/kg), a sample group of Embodiment 3.1 (87.36 mg/kg), a sample group of Embodiment 7 (87.36 mg/kg), a sample group of Embodiment 9.1 (87.36 mg/kg) and a sample group of Embodiment 9.2 (87.36 mg/kg, the solids prepared according to Embodiment 9.2), with 15 rats in each group. […]

The test system of a further data set is Kunming mice. Nature of the data set: bleomycin-induced idiopathic pulmonary fibrosis. Format: in vivo. The settings on record: HE staining, four grades, 28 days; Rosiglitazone 5 mg/kg, samples 70 mg/kg, Huangkui Capsule 180 mg/kg based on the extract. As for the experimental part: Experimental animals: 60 Kunming mice, half male and half female, 18 g to 22 g weight, clean grade.
Animal groups: the mice were randomly divided into 6 groups, which comprise a normal group, a model group, a drug control group (5 mg/kg of Rosiglitazone), a sample group prepared by the method of Embodiment 2-A3 (70 mg/kg), a sample group prepared by the method of Embodiment 9.2 (70 mg/kg) and a Huangkui Capsule sample group (180 mg/kg based on the extract), with 10 mice in each group.
Experimental modeling: after 3 days of adaptive feeding, the experimental mice were anesthetized by intraperitoneal injection with 4% chloral hydrate (0.01 ml/g). Taking a supine fixed position, routine disinfection was carried out, a median cervical incision was made, and a trachea was exposed by passive separation. The model group, the control group and the treatment group were slowly injected with bleomycin (5 mg/kg) into a space between tracheal cartilaginous rings, and the normal control group was injected with the same volume of normal saline. The mice were immediately rotated upright for 3 minutes to 5 minutes after the injection, so that the liquid medicine was evenly distributed in both lungs, then skin of the mice was sutured and disinfected at a suture, and the mice after waking were sent to a clean grade observation room for feeding. […]

For data set [3] the following is noted: compounds having five hydroxyl groups; cited from earlier work.
The test system of another data set is Brown-Norway rats. Nature of the data set: ocular blood flow and choroidal neovascularization after krypton laser photocoagulation. The settings on record: intragastric, after 4 weeks; Verteporfin 1.35 mg/kg, Embodiment 2-1 69.9 mg/kg, other samples 87.36 mg/kg. The class given is in vivo. On the procedure:
Experimental animals: rats, 150 g to 180 g weight, SPF grade, half male and half female.
as §1
Experimental modeling: healthy male Brown-Norway rats were selected and anesthetized by intramuscular injection of ketamine (50 mg/kg), pupils of the rats were dilated with a mixed mydriatic of 0.5% tropicamide and neofolin, and 8 points were photocoagulated between great retinal vessels around an optic disc at a distance 2 to 4 disc diameters away from the optic disc under a 120D special front lens by a krypton yellow laser (Lumenis Company in the United States) (wavelength 568 nm, and parameters: spot diameter […], exposure time 0.1 second, and power 150 mW to 200 mW). […]
Drug groups and administration dosages: there were a normal group, a model group, a positive control drug group (Verteporfin 1.35 mg/kg), a sample group of Embodiment 2-1 (69.9 mg/kg), a sample group of Embodiment 3.1 (87.36 mg/kg), a sample group of Embodiment 7 (87.36 mg/kg), a sample group of Embodiment 9.1 (87.36 mg/kg) and a sample group of Embodiment 9.2 (87.36 mg/kg, solids prepared according to Embodiment 9.2), with 15 rats in each group. After 4 weeks of administration, an inhibition rate of choroidal blood flow and an area of choroidal neovascularization of eyes were detected.

Regarding `Cc1ccc([C@@H]2O[C@H](CO)[C@@H](O)[C@H](O)[C@H]2O)cc1Cc1ccc(-c2ccc(F)cc2)s1` [Canagliflozin], in data set [1], the “serum uric acid level” value is reported as “significantly reduces”.

For the compound `CCOc1ccc(Cc2cc([C@@H]3O[C@H](CO)[C@@H](O)[C@H](O)[C@H]3O)ccc2Cl)cc1` [Dapagliflozin tablet, Dapagliflozin], the Urine albumin-to-creatinine ratio in data set [2] (intragastric, after 4 weeks of administration) worked out at 1.04 ± 1.09. The compound also had a Urine protein/mg in data set [2] (intragastric, after 4 weeks of administration, 15 mice per group) of 17.51 ± 12.34 mg. Also, in data set [2] (of 15 mice per group, 4 weeks), the “Abdominal distension/number of mice” value was 0 number of mice and the Diarrhea/number of mice is on record as 0 number of mice. In the data set with db/db mice (intragastric, after 4 weeks), the Urine albumin-to-creatinine ratio/ was found to be 1.17 ± 1.26 and the Urine protein/mg is given as 15.09 ± 10.27 mg. In addition, in the data set on db/db mice (of 15 mice per group, 4 weeks), the “Abdominal distension/number of mice” value was 0 number of mice and the Diarrhea/number of mice is 0 number of mice.

`C[C@@H]1C[C@H]2[C@@H]3CCC4=CC(=O)C=C[C@]4(C)[C@@]3(F)[C@@H](O)C[C@]2(C)[C@@]1(O)C(=O)CO` [Dexamethasone] gave a Urine protein in the data set with MRL/lpr mice (24-hour urine after 4 weeks) of 11.67 ± 3.45. Moreover, in the data set on MRL/lpr mice (kidney tissue after 4 weeks), the “C3 level of kidney” value amounted to 1.21 ± 0.67 and the “IgG level of kidney” value came out at 1.32 ± 0.67. Besides, the “Logarithm of antinuclear antibody titers” value in the data set with MRL/lpr mice (serum after 4 weeks) was determined as 0.81 ± 0.11.

Regarding `OC[C@H]1O[C@@H](c2ccc(Cl)c(Cc3ccc(O[C@H]4CCOC4)cc3)c2)[C@H](O)[C@@H](O)[C@@H]1O` [Empagliflozin], the “serum uric acid level” value in data set [1] is “significantly reduces”.

Turning to `OC[C@H]1O[C@@H](c2ccc(F)c(Cc3cc4ccccc4s3)c2)[C@H](O)[C@@H](O)[C@@H]1O` [Ipragliflozin], the “serum uric acid level” value in data set [1] is listed as “significantly reduces”.

In the data set on SD rats, `CCCCC1=NC2(CCCC2)C(=O)N1Cc1ccc(-c2ccccc2-c2nnn[nH]2)cc1` [Irbesartan] displayed a Serum creatinine of 16.67 ± 1.23 and a Serum urea nitrogen of 3.01 ± 0.98.

`CCOc1ccc(Cc2cc([C@@H]3S[C@H](CO)[C@@H](O)[C@H](O)[C@H]3O)c(OC)cc2C)cc1` [Luseogliflozin]: in data set [1], the “serum uric acid level” value is recorded as “significantly reduces”.

Consider `CN(CCOc1ccc(CC2SC(=O)NC2=O)cc1)c1ccccn1` (stereo not drawn) [Rosiglitazone], for which, in the data set on Kunming mice, the “Degree of pulmonary alveolitis” value stood at 1.03 ± 0.49 and the “Degree of pulmonary fibrosis” value is listed as 1.15 ± 0.81.

Consider `CCc1ccc(Cc2ccc3c(c2)[C@]2(OC3)O[C@H](CO)[C@@H](O)[C@H](O)[C@H]2O)cc1` [Tofogliflozin], for which the “serum uric acid level” value in data set [1] is “significantly reduces”.

Consider `O=c1c(O)c(-c2ccc(O)c(O)c2)oc2cc(O)cc(O)c12` [quercetin], for which the “effect on ocular blood flow” value in data set [3] is “negative effect”.

With Verteporfin, in the data set with Brown-Norway rats, the “Area of choroidal angiogenesis/μm^2” value was 19.80 ± 1.23^# μm^2 and the “Ocular choroidal blood flow inhibition ratio” value is 87.98 ± 11.23.
